Reference: US12533384B2, “Lactobacillus reuteri CCFM1132 capable of relieving hyperuricemia and application thereof” (Jiangnan University, priority 2020, dated 2026)

System: mice with hyperuricemia
Test: Serum creatinine of mice with hyperuricemia (Mindray BS480 biochemical analyzer)
Format: in vivo, KunMing mice
Details: 5 mg/kg BW by intragastric administration
Procedure: 24 healthy male KunMing mice with the weight of 24 to 32 g were randomly divided into four groups after a week of acclimatization, namely a control group, a hyperuricemia model group, an L. reuteri CCFM1132 intervention group and an allopurinol intervention group (allopurinol). Except the control group, 500 mg/kg BW hypoxanthine was given to the other groups every day by intragastric administration, and 200 mg/kg BW oteracil potassium was intraperitoneally injected to the other groups 1 h later. At 1 h before processing with oteracil potassium, 100 g/L skim milk was given to the control group and the hyperuricemia model group, L. reuteri CCFM1132 with the concentration of 1.0×10^9 CFU/mouse was given to the L. reuteri CCFM1132 intervention group, and 5 mg/kg BW allopurinol was given to the allopurinol group.
At the end of the experiment, fresh feces of the mice was collected and frozen at −80° C. After the experiment was finished, the mice were subjected to fasting but free for drinking water for 12 h. 0.1 mL/10 g of […] pentobarbital sodium solution was intraperitoneally injected for anesthetization. […] The serum uric acid levels were determined by using a kit method.
Experimental animal groups and processing methods are the same as those of Example 3, and serum creatinine was detected by using a Mindray BS480 biochemical analyzer according to a kit method.

`Oc1ncnc2[nH]ncc12` [allopurinol] was tested, and the “serum creatinine reducing effect” value was “does not have the reducing effect”.
